Source: ChEMBL document CHEMBL2163249, “Exploration of natural compounds as sources of new bifunctional scaffolds targeting cholinesterases and beta amyloid aggregation: the case of chelerythrine” (Bioorg Med Chem, 2012)
Starred links: 1 amine or outer side, 2 acyl side, 3 side chain; linkers in the order of their positions; H or OH if unused. Positions of bridges follow the written chain, without caps; N, C: chain ends. Non-standard residues stand in square brackets, D forms with d. Residues, ends and D or L forms follow the SMILES beside them. Chains are numbered I, II in the order given. Actinocin(9to1) = Cc1c2oc3c(C)ccc(C(=O)[*:1])c3nc-2c(C(=O)[*:2])c(N)c1=O; NMeV = CN[C@H](C(=O)O)C(C)C; Sar = CNCC(=O)O

biological target: Acetylcholinesterase (Electrophorus electricus) (UniProt O42275); settings: at 2 mg/mL
Sequence (O42275 24-633 limits assumed): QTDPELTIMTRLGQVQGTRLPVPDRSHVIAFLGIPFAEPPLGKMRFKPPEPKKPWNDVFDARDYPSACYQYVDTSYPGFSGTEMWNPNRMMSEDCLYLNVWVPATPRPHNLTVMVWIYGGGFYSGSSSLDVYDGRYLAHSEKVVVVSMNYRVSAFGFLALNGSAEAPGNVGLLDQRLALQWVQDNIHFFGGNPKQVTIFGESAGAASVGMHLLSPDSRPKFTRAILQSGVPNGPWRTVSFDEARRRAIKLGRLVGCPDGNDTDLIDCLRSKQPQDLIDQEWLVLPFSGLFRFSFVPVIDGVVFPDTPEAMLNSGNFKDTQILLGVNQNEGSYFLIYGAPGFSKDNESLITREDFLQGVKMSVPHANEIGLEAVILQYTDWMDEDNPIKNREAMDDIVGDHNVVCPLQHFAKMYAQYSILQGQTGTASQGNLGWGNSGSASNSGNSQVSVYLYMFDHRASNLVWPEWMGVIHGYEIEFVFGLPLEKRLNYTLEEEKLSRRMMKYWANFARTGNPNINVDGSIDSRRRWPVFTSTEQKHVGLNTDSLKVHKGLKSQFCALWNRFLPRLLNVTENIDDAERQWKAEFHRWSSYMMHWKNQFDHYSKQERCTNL
Description: Inhibition of electric eel AChE at 2 mg/ml by Ellman's method

Compound	inhibition [%]
Cc1c2oc3c(C)ccc(C(=O)N[C@@H]4C(=O)N[C@H](C(C)C)C(=O)N5CCC[C@H]5C(=O)N(C)CC(=O)N(C)[C@@H](C(C)C)C(=O)O[C@@H]4C)c3nc-2c(C(=O)N[C@@H]2C(=O)N[C@H](C(C)C)C(=O)N3CCC[C@H]3C(=O)N(C)CC(=O)N(C)[C@@H](C(C)C)C(=O)O[C@@H]2C)c(N)c1=O (I: T[dV]P[Sar][NMeV] / II: T[dV]P[Sar][NMeV]; ester I:1-I:C, II:1-II:C; linker I:N-II:N via Actinocin(9to1))	-2.56
CCN1C[C@]2(C)CC[C@H](OC)[C@@]34C1[C@]1(OCO[C@@]15C[C@H](OC)[C@H]1C[C@]3(O)[C@@H]5[C@H]1OC)[C@@H](OC(C)=O)[C@H]24	29.5
C=C[C@](C)(O)CC[C@@H]1[C@@]2(C)CCCC(C)(C)[C@@H]2CC[C@@]1(C)O	3.08
COc1ccc(Cc2nccc3cc(OC)c(OC)cc23)cc1OC	35
N[C@H](C(=O)O)[C@@H]1CC(Cl)=NO1	2.09
O=c1c2ccccc2nc2n1CCc1c-2[nH]c2ccccc12	-4
CC[C@@H](CO)NC(=O)[C@@H]1C=C2c3cccc4[nH]cc(c34)C[C@H]2N(C)C1	6.45
C[C@@H]1C(=O)O[C@H]2C[C@@]34[C@H]5C[C@@H](C(C)(C)C)[C@]36[C@@H](OC(=O)[C@@H]6O)O[C@@]4(C(=O)O5)[C@]21O	6.97
CC(=O)OC[C@@]1(O)C[C@@]23CC[C@@H]4c5ccoc5CC[C@@]4(C)[C@@H]2CC[C@@H]1C3	-6.2
Nc1ncnc2c1ccn2[C@@H]1O[C@H](CO)[C@@H](O)[C@H]1O	4.48
CCCCCC[C@@H]1[C@@H](OC(=O)C(C)C)[C@H](C)O[C@@H](O)[C@@H](N[C@H](O)c2cccc(NC=O)c2O)[C@@H](C)O[C@H]1O	-2.88
c1cncc([C@@H]2CCCCN2)c1	0.25
CC[C@@H](C(=O)O)[C@@H]1O[C@@H]([C@@H](C)[C@H](O)[C@H](C)C(=O)[C@H](CC)[C@H]2O[C@]3(C=C[C@@H](O)[C@]4(CC[C@@](C)([C@H]5CC[C@](O)(CC)[C@H](C)O5)O4)O3)[C@H](C)C[C@@H]2C)[C@@H](C)C[C@@H]1C	-1.36
OCC1=C[C@@H](O)[C@@H]2C=CO[C@@H](O[C@@H]3O[C@H](CO)[C@@H](O)[C@H](O)[C@H]3O)[C@H]12	-1.28
CC1(C)O[C@H]2CC(=O)OC[C@]23[C@H]2CC[C@@]4(C)[C@H](c5ccoc5)OC(=O)[C@H]5O[C@]54[C@]2(C)C(=O)C[C@@H]13	-0.85
COc1ccc2c(c1O)-c1c(OC)c(OC)cc3c1[C@H](C2)N(C)CC3	-6.07
CC(C)=CCC/C(C)=C/CC/C(C)=C/CC/C(C)=C/CC/C(C)=C/CC/C(C)=C/CC/C(C)=C/CC/C(C)=C/CC/C(C)=C/CO	-1.74
CC1=C(C(=O)O)N2C(=O)[C@@H](NC(=O)[C@H](N)C3=CCC=CC3)[C@H]2SC1	-0.38
C[C@@]12C=Cc3occc3[C@H]1CC[C@]13CC(=O)[C@H](CC[C@H]12)C3	8.34
COc1ccc([C@@H]2CC(=O)c3c(O)cc(O[C@@H]4O[C@H](CO[C@@H]5O[C@@H](C)[C@H](O)[C@@H](O)[C@H]5O)[C@@H](O)[C@H](O)[C@H]4O)cc3O2)cc1O	-4.26
O=C1c2ccc(O)cc2O[C@@H](c2cc(O)c(O)c(O)c2)[C@@H]1O	4.04

biological target: Cholinesterase (Equus caballus) (UniProt P81908); settings: at 2 mg/mL
Sequence (P81908 whole entry): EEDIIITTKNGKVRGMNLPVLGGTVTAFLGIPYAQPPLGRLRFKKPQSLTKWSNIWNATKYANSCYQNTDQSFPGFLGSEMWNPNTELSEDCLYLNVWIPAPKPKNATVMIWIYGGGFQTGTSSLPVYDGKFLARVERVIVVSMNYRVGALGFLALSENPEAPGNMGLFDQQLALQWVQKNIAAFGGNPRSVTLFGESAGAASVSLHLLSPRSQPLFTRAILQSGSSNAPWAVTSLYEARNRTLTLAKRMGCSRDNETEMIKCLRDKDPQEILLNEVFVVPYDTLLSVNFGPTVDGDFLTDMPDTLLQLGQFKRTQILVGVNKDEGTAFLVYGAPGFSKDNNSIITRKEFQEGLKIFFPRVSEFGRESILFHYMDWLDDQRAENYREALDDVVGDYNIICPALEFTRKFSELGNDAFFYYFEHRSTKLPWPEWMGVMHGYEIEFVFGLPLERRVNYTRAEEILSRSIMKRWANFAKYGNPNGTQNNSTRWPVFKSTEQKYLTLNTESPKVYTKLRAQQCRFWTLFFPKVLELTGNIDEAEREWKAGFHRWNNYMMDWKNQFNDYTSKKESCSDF
Description: Inhibition of horse BChE at 2 mg/ml by Ellman's method

Compound	inhibition [%]
Cc1c2oc3c(C)ccc(C(=O)N[C@@H]4C(=O)N[C@H](C(C)C)C(=O)N5CCC[C@H]5C(=O)N(C)CC(=O)N(C)[C@@H](C(C)C)C(=O)O[C@@H]4C)c3nc-2c(C(=O)N[C@@H]2C(=O)N[C@H](C(C)C)C(=O)N3CCC[C@H]3C(=O)N(C)CC(=O)N(C)[C@@H](C(C)C)C(=O)O[C@@H]2C)c(N)c1=O (I: T[dV]P[Sar][NMeV] / II: T[dV]P[Sar][NMeV]; ester I:1-I:C, II:1-II:C; linker I:N-II:N via Actinocin(9to1))	3.31
CCN1C[C@]2(C)CC[C@H](OC)[C@@]34C1[C@]1(OCO[C@@]15C[C@H](OC)[C@H]1C[C@]3(O)[C@@H]5[C@H]1OC)[C@@H](OC(C)=O)[C@H]24	0.02
C=C[C@](C)(O)CC[C@@H]1[C@@]2(C)CCCC(C)(C)[C@@H]2CC[C@@]1(C)O	-2.61
N[C@H](C(=O)O)[C@@H]1CC(Cl)=NO1	8.62
COc1cccc2c1cc([N+](=O)[O-])c1c(C(=O)O)cc3c(c12)OCO3	22.7
CC1=CC(=O)CC(C)(C)C1(O)/C=C/C(C)=C\C(=O)O (racemic)	-4.4
CN1C(=O)[C@]23CC4=CC=C[C@H](O)[C@H]4N2C(=O)[C@@]1(CO)SS3	10.3
CCCCCCCCCCCC1=C(O)C(=O)C=C(O)C1=O	1.24
C=C[C@@]1(C)CC(=O)[C@]2(O)[C@@]3(C)[C@@H](O)CCC(C)(C)[C@@H]3[C@H](O)[C@H](OC(C)=O)[C@@]2(C)O1	1.35
C=C1O[C@@](CO)(n2cnc3c(N)ncnc32)[C@H](O)[C@@H]1O	-3.01
CC(C)(C)[C@]1(O)CC2OC(=O)CC23C(=O)OC2OC(=O)[C@H](O)C231 (stereo partly specified)	10.9
COC1=CC(=O)OC(/C=C/c2ccccc2)C1 (racemic)	-2.41
C[C@@H]1C[C@@H]([C@H](O)CC2CC(=O)NC(=O)C2)C(=O)[C@@H](C)C1	-2.08
O=C(O[C@@H]1Cc2c(O)cc(O)cc2O[C@@H]1c1cc(O)c(O)c(O)c1)c1cc(O)c(O)c(O)c1	-4.27
O=C(O)CCCc1c[nH]c2ccccc12	-5.54
CNc1ccc2oc(C[C@H]3O[C@@]4(CC[C@H]3C)O[C@H]([C@H](C)C(=O)c3ccc[nH]3)[C@H](C)C[C@H]4C)nc2c1C(=O)O	-3.34
CS[C@H]1SC[C@H]2C(=O)N(C)[C@@H](C(C)C)C(=O)OC[C@@H](NC(=O)c3cnc4ccccc4n3)C(=O)N[C@@H](C)C(=O)N(C)[C@@H]1C(=O)N(C)[C@@H](C(C)C)C(=O)OC[C@@H](NC(=O)c1cnc3ccccc3n1)C(=O)N[C@@H](C)C(=O)N2C	-7.37
CC(=O)OCC1=C[C@H]2[C@@H]3C(C)(C)[C@]3(OC(=O)Cc3ccccc3)C[C@@H](C)[C@]2(O)[C@@H]2C=C(C)C(=O)[C@@]2(O)C1	6.06

Compound	inhibition [%]
O=C(O)/C=C/c1c[nH]c2ccccc12	4.54
O[C@H]1[C@H](O)[C@@H](O)CN2CC[C@H](O)[C@H]12	0.79
Cc1cc2c(C(C)C)c(O)c(O)c(C=O)c2c(O)c1-c1c(C)cc2c(C(C)C)c(O)c(O)c(C=O)c2c1O	-2.11
Clc1ccc(C2CC3CCC2N3)cn1 (racemic)	5.32
OC[C@@H]1[C@@H](O)[C@H](O)[C@H]2[C@@H](O)CCN21	1.12
CO[C@H]1[C@H](OC(=O)c2ccc(C)[nH]2)[C@H](O)[C@@H](Oc2ccc3c(O)c(NC(=O)c4c[nH]c(C(=O)Nc5c(O)c6ccc(O[C@H]7OC(C)(C)[C@@H](OC)[C@H](OC(=O)c8ccc(C)[nH]8)[C@@H]7O)c(C)c6oc5=O)c4C)c(=O)oc3c2C)OC1(C)C	3.14
COc1ccc2c3c1O[C@H]1C[C@@H](O)C=C[C@@]31CCN(C)C2	37.8
CC(=O)O[C@@]12C[C@@H](C)[C@@]3(O)[C@@H](C=C(CO)C[C@]4(O)C(=O)C(C)=C[C@@H]34)[C@@H]1C2(C)C	3.93
C/C(=C/C=C/[C@@H](C)C(=O)O)[C@H]1CN[C@H](C(=O)O)[C@H]1CC(=O)O	2.83
CC(C)=CCC[C@](C)(O)[C@H]1CC[C@]2(C)[C@@H]1CC[C@@H]1[C@@]3(C)CCC(=O)C(C)(C)[C@@H]3CC[C@]12C	-2.48
CC(=O)C1=C(O)[C@@H]2[C@H]3c4c[nH]c5cccc(c45)C[C@H]3C(C)(C)N2C1=O	6.85
CCCCCCCCCCCCCC/C(C(=O)O)=C(\C)C(=O)O	9.23
CNC(=O)Oc1ccc2c(c1)[C@]1(C)CCN(C)[C@@H]1N2C	88
C=C1CC[C@@H]2O[C@]2(C)CC[C@@H]2[C@@H]1CC2(C)C	1.64
COc1ccc([C@@H]2OC[C@@H]3[C@H]2CO[C@H]3c2ccc(OC)c(OC)c2)cc1OC	0.02
CC[C@@]1([C@@H]2O[C@@H]([C@H]3O[C@@](O)(CO)[C@H](C)C[C@@H]3C)C[C@@H]2C)CC[C@H]([C@]2(C)CC[C@]3(C[C@H](O)[C@@H](C)[C@@H]([C@@H](C)[C@@H](OC)[C@H](C)C(=O)O)O3)O2)O1	2.48
c1ccc2c3c([nH]c2c1)CNCC3	-5.97
